Reference: paper PMC9643456, “Matching amino acids membrane preference profile to improve activity of antimicrobial peptides” (Communications Biology, 2022)
≈ marks a conversion by molar mass, not a printed value. Square brackets hold non-standard residues; d marks the D form. Peptide text beside a SMILES is read from it.

Columns and labels:
MDR A. baumannii = experiment: microbe, parasite or virus in culture
Outline: (§1)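 Broth microdilution per CLSI in cation-adjusted Mueller–Hinton broth with added calcium (50 mg/L) and magnesium (10 mg/L); mid-log bacteria at a final 5 × 10^5 CFU/ml were incubated with peptide for 18 h at 37 °C. MIC was the lowest concentration without visible turbidity, in triplicate.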

MDR E. faecalis = experiment: microbe, parasite or virus in culture
Outline: as §1

MDR S. aureus = experiment: microbe, parasite or virus in culture
Outline: as §1

MDR P. aeruginosa = experiment: microbe, parasite or virus in culture
Outline: as §1

DMPC:DMPG liposomes = experiment: Isothermal titration calorimetry, peptide-liposome interaction; type: binding; settings: ITC, PBS, 37 °C; run shown in Fig. 2a or run not numbered
Experimental: Liposomes were prepared using 1,2-dimyristoyl-sn-glycero-3-(phospho-rac-(1-glycerol)) (sodium salt) (DMPG) (Avanti, Alabama, USA); 1,2-dimyristoyl-sn-glycero-3-phosphocholine (DMPC) (Avanti); and cholesterol (Sigma, Darmstadt, Germany) were used. Bacterial membrane mimic DMPC/DMPG (7/3) unilamellar vesicles (LUVs), and mammalian membrane mimic DMPC/cholesterol (10/1) vesicles with 100-nm diameters were prepared using the freeze-thaw and extrusion method. Lipids were mixed and dissolved in methanol in round-bottomed flasks then evaporated and freeze-dried overnight, yielding a thin layer of lipid covering the glass wall. PBS was added to the lipid layer, after which the PBS-lipid layer was vortexed then frozen in liquid nitrogen and thawed in 50 °C water repeatedly until no visible layer remained. LiposoFast Liposome Factory Basic unit with stabilizer (Avestin, Ottawa, Canada) was then used to extrude the liposomes 50 times through a polycarbonate membrane filter (pore diameter, 100 nm; filter diameter, 0.75 inches) (Avestin). For circular dichroism, isothermal titration calorimetry, tryptophan fluorescence, and dynamic light scattering experiments, liposomes were reconstructed and resuspended in PBS (Welgene Inc, Gyeongsangbuk-do, Korea).
PC/PG liposome stock solutions and peptide solutions were diluted in PBS and degassed for 30 min. Peptide solutions (2 ml, 40 μM) were then loaded into a VP-ITC MicroCalorimeter (MicroCal, Northampton, USA). Liposome samples (600 μl, 2000 μM) were injected into the VP-ITC using a syringe. Measurement parameters were as follows: cell temperature, 37 °C; total injections, 30; reference power, 10; initial delay, 300; stirring speed, 300; edit mode, 10.0/12.0/200/2. Liposome solution (10 μl) was injected into the peptide solution 30 times. Each experiment was performed in duplicate. The results were calculated using MicroCal analysis.

A. baumannii strains = experiment: microbe, parasite or virus in culture
[1] = CAMHB plus 0.2% bovine serum albumin and 0.01% acetic acid, values marked * in Table 2

Structure (SMILES): CC[C@@H](C)[C@@H](NC(=O)[C@@H](Cc1c[nH]c2ccccc12)NC(=O)[C@H](NC(=O)[C@@H](CC(C)C)NC(=O)[C@H](N)Cc1c[nH]c2ccccc12)C(C)C)C(=O)N[C@H](Cc1c[nH]c2ccccc12)C(=O)N[C@H](CCCNC(=N)N)C(=O)N[C@H](CCCNC(=N)N)C(=O)N[C@H](CCCNC(=N)N)C(N)=O [WCopW29] (H-[dW][dL][dV][dW][dI][dW][dR][dR][dR]-NH2)
- MIC at different cfu/ml, MDR A. baumannii (MDR A. baumannii; 1 × 10^10 cfu/ml (x2000)): 10 µM (≈ 13.7 µg/mL)
- MIC at different cfu/ml, MDR A. baumannii (MDR A. baumannii; 2 × 10^8 cfu/ml (x400)): 2.5 µM (≈ 3.42 µg/mL)
- MIC at killing kinetics condition, A. baumannii ATCC BAA 1605 (MDR A. baumannii; 5 x 10^5 cfu/ml, PBS): 0.63 µM (≈ 0.863 µg/mL)
- MIC at different cfu/ml, MDR E. faecalis (MDR E. faecalis; 2 × 10^8 cfu/ml (x400)): 2.5 µM (≈ 3.42 µg/mL)
- MIC at killing kinetics condition, E. faecalis ATCC 51575 (MDR E. faecalis; 5 x 10^5 cfu/ml, PBS): 1.25 µM (≈ 1.71 µg/mL)
- MIC in 0.2% albumin and 0.01% AcOH added CLSI standard condition, MDR E. faecalis (MDR E. faecalis; [1]): 0.31 µM
- Minimum inhibitory concentrations, MDR E. faecalis (MDR E. faecalis; CLSI broth microdilution, CAMHB with 50 mg/L Ca2+, 10 mg/L Mg2+, 5 × 10^5 CFU/ml, 18 h 37 °C, triplicate, strain ATCC 51575): 1.25 µM (≈ 1.71 µg/mL)
- MIC at different cfu/ml, MDR S. aureus (MDR S. aureus; 1 × 10^10 cfu/ml (x2000)): 5 µM (≈ 6.85 µg/mL)
- MIC at different cfu/ml, MDR S. aureus (MDR S. aureus; 2 × 10^8 cfu/ml (x400)): 2.5 µM (≈ 3.42 µg/mL)
- MIC at killing kinetics condition, S. aureus KCCM 40510 (MDR S. aureus; 5 x 10^5 cfu/ml, PBS): 1.25 µM (≈ 1.71 µg/mL)
- MIC in 0.2% albumin and 0.01% AcOH added CLSI standard condition, MDR S. aureus (MDR S. aureus; [1]): 0.31 µM
- Minimum inhibitory concentrations, MDR S. aureus (MDR S. aureus; CLSI broth microdilution, CAMHB with 50 mg/L Ca2+, 10 mg/L Mg2+, 5 × 10^5 CFU/ml, 18 h 37 °C, triplicate, strain KCCM 40510): 1.25 µM (≈ 1.71 µg/mL)
- Increase of MIC when the S. aureus concentration was increased 200-fold (MDR S. aureus; S. aureus): twofold
- MIC at TM potential condition, S. aureus KCCM 40510 (MDR S. aureus; bacteria OD 0.1 (5 x 10^7 cfu/ml), CAMHB, 1% DMSO): 2 µM (≈ 2.74 µg/mL)
- MIC at different cfu/ml, MDR P. aeruginosa (MDR P. aeruginosa; 2 × 10^8 cfu/ml (x400)): 5 µM (≈ 6.85 µg/mL)
- MIC at killing kinetics condition, P. aeruginosa CCARM 2180 (MDR P. aeruginosa; 5 x 10^5 cfu/ml, PBS): 5 µM (≈ 6.85 µg/mL)
- MIC in 0.2% albumin and 0.01% AcOH added CLSI standard condition, MDR P. aeruginosa (MDR P. aeruginosa; [1]): 5 µM
- ΔS (DMPC:DMPG liposomes): 18.2 cal/mol deg
- Number of A. baumannii strains at MIC (μM) 0.63 (A. baumannii strains; of 30 strains): 3
- Number of A. baumannii strains at MIC (μM) 1.25 (A. baumannii strains; of 30 strains): 25
- Number of A. baumannii strains at MIC (μM) 2.5 (A. baumannii strains; of 30 strains): 2
- Number of A. baumannii strains at MIC (μM) 5 (A. baumannii strains; of 30 strains): 0
- Number of A. baumannii strains at MIC (μM) 10 (A. baumannii strains; of 30 strains): 0
- Number of A. baumannii strains at MIC (μM) ≤0.31 (A. baumannii strains; of 30 strains): 0
- Number of A. baumannii strains at MIC (μM) ≥20 (A. baumannii strains; of 30 strains): 0
- MIC, A. baumannii ATCC 17978 (A. baumannii strains; strains, 18 h): 2.5 µM (≈ 3.42 µg/mL)
- MIC, A. baumannii ATCC BBA 1605 (A. baumannii strains; strains, 18 h): 0.63 µM (≈ 0.863 µg/mL)
- MIC, A. baumannii Isolated strain 1 (A. baumannii strains; strains, 18 h): 1.25 µM (≈ 1.71 µg/mL)
- MIC, A. baumannii Isolated strain 3 (A. baumannii strains; strains, 18 h): 2.5 µM (≈ 3.42 µg/mL)
- MIC, A. baumannii Isolated strain 6 (A. baumannii strains; strains, 18 h): 1.25 µM (≈ 1.71 µg/mL)
- MIC, A. baumannii Isolated strain 10 (A. baumannii strains; strains, 18 h): 1.25 µM (≈ 1.71 µg/mL)
- MIC, A. baumannii Isolated strain 14 (A. baumannii strains; strains, 18 h): 1.25 µM (≈ 1.71 µg/mL)
- MIC, A. baumannii Isolated strain 15 (A. baumannii strains; strains, 18 h): 1.25 µM (≈ 1.71 µg/mL)
- MIC, A. baumannii Isolated strain 16 (A. baumannii strains; strains, 18 h): 1.25 µM (≈ 1.71 µg/mL)
- MIC, A. baumannii Isolated strain 19 (A. baumannii strains; strains, 18 h): 1.25 µM (≈ 1.71 µg/mL)
- MIC, A. baumannii Isolated strain 22 (A. baumannii strains; strains, 18 h): 1.25 µM (≈ 1.71 µg/mL)
- MIC, A. baumannii Isolated strain 39 (A. baumannii strains; strains, 18 h): 1.25 µM (≈ 1.71 µg/mL)
- MIC, A. baumannii Isolated strain 44 (A. baumannii strains; strains, 18 h): 1.25 µM (≈ 1.71 µg/mL)
- MIC, A. baumannii Isolated strain 66 (A. baumannii strains; strains, 18 h): 1.25 µM (≈ 1.71 µg/mL)
- MIC, A. baumannii Isolated strain 68 (A. baumannii strains; strains, 18 h): 1.25 µM (≈ 1.71 µg/mL)
- MIC, A. baumannii Isolated strain 69 (A. baumannii strains; strains, 18 h): 1.25 µM (≈ 1.71 µg/mL)
- MIC, A. baumannii Isolated strain 71 (A. baumannii strains; strains, 18 h): 1.25 µM (≈ 1.71 µg/mL)
- MIC, A. baumannii Isolated strain 76 (A. baumannii strains; strains, 18 h): 1.25 µM (≈ 1.71 µg/mL)
- MIC, A. baumannii Isolated strain 80 (A. baumannii strains; strains, 18 h): 0.63 µM (≈ 0.863 µg/mL)
- MIC, A. baumannii Isolated strain 82 (A. baumannii strains; strains, 18 h): 1.25 µM (≈ 1.71 µg/mL)
- MIC, A. baumannii Isolated strain 86 (A. baumannii strains; strains, 18 h): 0.63 µM (≈ 0.863 µg/mL)
- MIC, A. baumannii Isolated strain 89 (A. baumannii strains; strains, 18 h): 1.25 µM (≈ 1.71 µg/mL)
- MIC, A. baumannii Isolated strain 102 (A. baumannii strains; strains, 18 h): 1.25 µM (≈ 1.71 µg/mL)
- MIC, A. baumannii Isolated strain 127 (A. baumannii strains; strains, 18 h): 1.25 µM (≈ 1.71 µg/mL)
- MIC, A. baumannii Isolated strain 141 (A. baumannii strains; strains, 18 h): 1.25 µM (≈ 1.71 µg/mL)
- MIC, A. baumannii Isolated strain 144 (A. baumannii strains; strains, 18 h): 1.25 µM (≈ 1.71 µg/mL)
- MIC, A. baumannii Isolated strain 147 (A. baumannii strains; strains, 18 h): 1.25 µM (≈ 1.71 µg/mL)
- MIC, A. baumannii Isolated strain 152 (A. baumannii strains; strains, 18 h): 1.25 µM (≈ 1.71 µg/mL)
- MIC, A. baumannii KCCM 40203 (A. baumannii strains; strains, 18 h): 1.25 µM (≈ 1.71 µg/mL)
- MIC, A. baumannii NCCP 14654 (A. baumannii strains; strains, 18 h): 1.25 µM (≈ 1.71 µg/mL)
